From patent publication US20240217967A1, “INDOLINE DERIVATIVES AS DDRS INHIBITORS” (CHIESI FARMACEUTICI S.P.A., priority 2021, published 2024)

Assays:
DDR1 [1] = target: T1, DDR1 (Homo sapiens, UniProt Q08345); experiment: DDR1 LanthaScreen Europium Kinase Binding assay; conditions: binding affinity; IC50 converted in Ki using Cheng-Prusoff; read-out: Ki DDR1
Description: (§1) DDR1 and DDR2 binding assays were performed using Life Technologies LanthaScreen™ Europium Kinase Binding assay. The compounds were incubated with 5 nM DDR1 (Carna Biosciences) or 5 nM DDR2 (Life Technologies) for 1 hour at room temperature in white 384-well OptiPlate (PerkinElmer), containing 20 nM or 10 nM Kinase Tracer 178 respectively and 2 nM Europium labelled anti-GST antibody (Life Technologies) in assay buffer (50 mM HEPES pH 7.5, 10 mM MgCI2, 1 mM EGTA and 0.01% BRIJ35). The ratio of fluorescence emission 665 nm/615 nm after excitation at 340 nm was obtained using the Tecan Spark 20M plate reader. IC50 values were determined in GraphPad Prism 7.0 software, using 4 parameter model: log(inhibitor) vs. response. IC50 values were converted in Ki using the Cheng-Prusoff equation (Ki=IC50/(1+[Tracer]/Kd).

DDR2 = target: T2, DDR2 (Homo sapiens, UniProt Q16832); experiment: DDR2 LanthaScreen Europium Kinase Binding assay; conditions: binding affinity; IC50 converted in Ki using Cheng-Prusoff; read-out: Ki DDR2
T2 sequence (Q16832 22-855): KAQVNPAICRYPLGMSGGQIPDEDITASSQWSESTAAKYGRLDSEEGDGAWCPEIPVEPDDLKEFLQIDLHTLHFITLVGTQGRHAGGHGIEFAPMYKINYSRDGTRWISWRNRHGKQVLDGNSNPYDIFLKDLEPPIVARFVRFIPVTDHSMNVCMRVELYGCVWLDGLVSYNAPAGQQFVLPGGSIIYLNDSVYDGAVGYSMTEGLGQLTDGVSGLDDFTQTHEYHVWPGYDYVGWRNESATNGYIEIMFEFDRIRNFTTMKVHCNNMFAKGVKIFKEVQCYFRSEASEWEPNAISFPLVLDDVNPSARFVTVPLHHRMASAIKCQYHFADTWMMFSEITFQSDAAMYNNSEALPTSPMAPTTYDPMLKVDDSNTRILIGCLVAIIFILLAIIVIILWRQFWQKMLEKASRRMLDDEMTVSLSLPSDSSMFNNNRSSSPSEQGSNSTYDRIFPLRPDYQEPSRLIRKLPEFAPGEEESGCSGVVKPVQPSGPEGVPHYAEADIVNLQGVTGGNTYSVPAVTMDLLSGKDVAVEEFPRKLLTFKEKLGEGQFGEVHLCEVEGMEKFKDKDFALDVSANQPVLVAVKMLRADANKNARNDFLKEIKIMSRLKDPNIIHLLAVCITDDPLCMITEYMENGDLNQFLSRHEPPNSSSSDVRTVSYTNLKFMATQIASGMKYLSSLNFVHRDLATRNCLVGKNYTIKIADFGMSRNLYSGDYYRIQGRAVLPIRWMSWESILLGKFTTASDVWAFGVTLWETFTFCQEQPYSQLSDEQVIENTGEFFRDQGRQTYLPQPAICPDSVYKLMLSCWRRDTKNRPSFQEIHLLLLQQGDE
Description: as §1

DDR1 [2] = target: T1, DDR1; experiment: DDR1 cell based assay (PathHunter U2OS DDR1, collagen II stimulation); conditions: U2OS-DDR1 cells, bovine Type II Collagen stimulation
Description: The inhibition of DDR1 receptor activation by compounds was evaluated by PathHunter® U2OS DDR1 assay (Eurofins DiscoverX), according to the manufacturer's instructions. Briefly, U2OS-DDR1 cells were seeded in white 384-well plates at a density of 5000 cells/well and incubated for 2 hours at 37° C. and 5% CO2. Cells were then treated with compounds at different concentrations and incubated for 30 minutes, before stimulation with bovine Type II Collagen 20 μg/ml and incubation overnight at 37° C. and 5% CO2. PathHunter Detection Reagents were prepared according to the protocol provided by DiscoverX and 20 μl/well of this mix were added to each well. After incubating the plates for 1 hour at room temperature in the dark, luminescence signal was acquired with a plate reader. Raw data were normalized to vehicle control (0% for normalization) and positive control (100% for normalization; cells treated with 20 μg/ml collagen II) and IC50 parameters were calculated in GraphPad Prism 8.0 software, using sigmoidal dose-response curve fitting with variable slope.

T1 sequence (Q08345 19-913): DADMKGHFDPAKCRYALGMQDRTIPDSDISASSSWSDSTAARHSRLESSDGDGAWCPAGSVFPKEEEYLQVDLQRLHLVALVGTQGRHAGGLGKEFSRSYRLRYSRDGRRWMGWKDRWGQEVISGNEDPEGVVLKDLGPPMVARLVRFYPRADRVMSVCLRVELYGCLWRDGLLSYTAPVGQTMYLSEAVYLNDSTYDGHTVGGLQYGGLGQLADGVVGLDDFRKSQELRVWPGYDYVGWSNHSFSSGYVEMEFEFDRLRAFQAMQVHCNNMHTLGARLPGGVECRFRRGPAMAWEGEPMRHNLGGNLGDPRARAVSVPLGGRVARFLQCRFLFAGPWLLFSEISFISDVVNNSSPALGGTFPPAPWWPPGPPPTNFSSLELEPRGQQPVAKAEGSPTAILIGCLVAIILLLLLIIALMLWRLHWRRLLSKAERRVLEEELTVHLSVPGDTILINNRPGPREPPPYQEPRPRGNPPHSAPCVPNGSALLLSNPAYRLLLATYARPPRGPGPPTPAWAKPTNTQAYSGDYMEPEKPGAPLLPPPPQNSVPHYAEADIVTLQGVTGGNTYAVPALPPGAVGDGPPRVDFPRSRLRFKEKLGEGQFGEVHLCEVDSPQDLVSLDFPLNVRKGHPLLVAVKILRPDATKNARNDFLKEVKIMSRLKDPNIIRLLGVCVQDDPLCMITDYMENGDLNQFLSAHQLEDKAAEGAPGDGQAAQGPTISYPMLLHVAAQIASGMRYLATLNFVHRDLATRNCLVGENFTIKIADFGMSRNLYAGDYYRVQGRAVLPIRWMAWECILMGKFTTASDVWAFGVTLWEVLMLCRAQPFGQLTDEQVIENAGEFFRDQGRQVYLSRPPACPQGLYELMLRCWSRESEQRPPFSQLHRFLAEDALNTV

Row | Structure (SMILES) | Ki (DDR1 [1]) | Ki (DDR2) | IC50 (DDR1 [2])
1 | Cc1cn(-c2cc(NC(=O)c3ccc4c(c3)N(Cc3ccc5ccncc5c3)CC4)cc(C(F)(F)F)c2)cn1 [Example 5, 1-(isoquinolin-7-ylmethyl)-N-(3-(4-methyl-1H-imidazol-1-yl)-5-(trifluoromethyl)phenyl)indoline-6-carboxamide] | 25 to 50 nM | 50 to 80 nM | 25 to 50 nM
2 | O=C(Nc1cc(C(F)(F)F)ncn1)c1ccc2c(c1)N(Cc1cnc3cnccn13)CC2 [Example 88] | < 25 nM | < 25 nM | 50 to 80 nM
3 | Cc1cn(-c2cc(NC(=O)c3ccc4c(c3)N(C(=O)c3cnc5cnccn35)CC4C)cc(C(F)(F)F)c2)cn1 (stereo not drawn) [Example 29, 1-(imidazo[1,2-a]pyrazine-3-carbonyl)-3-methyl-N-(3-(4-methyl-1H-imidazol-1-yl)-5-(trifluoromethyl)phenyl)indoline-6-carboxamide] | < 25 nM | < 25 nM | 50 to 80 nM
4 | Cc1cn(-c2cc(NC(=O)c3ccc4c(c3)N(C(=O)c3cnc5cnccn35)CC4)cc(C(F)(F)F)c2)cn1 [Example 13, 1-(imidazo[1,2-a]pyrazine-3-carbony1)-N-(3-(4-methyl-1H-imidazol-1-y1)-5-(trifluoromethyl)phenyl)indoline-6-carboxamide] | < 25 nM | < 25 nM | 50 to 80 nM
5 | CN(C)Cc1ccc(NC(=O)c2ccc3c(c2)N(Cc2cnc4cnccn24)CC3)cc1C(F)(F)F [Example 48, N-(4-((dimethylamino)methyl)-3-(trifluoromethyl)phenyl)-1-(imidazo[1,2-a]pyrazin-3-ylmethyl)indoline-6-carboxamide] | < 25 nM | < 25 nM | 25 to 50 nM
6 | Cc1n[nH]c2ncc(CN3CCc4ccc(C(=O)Nc5cc(C(=O)NCCN(C)C)cc(C(F)(F)F)c5)cc43)cc12 [Example 73, N-(3-((2-(dimethylamino)ethyl)carbamoyl)-5-(trifluoromethyl)phenyl)-1-((3-methyl-1H-pyrazolo[3,4-b]pyridin-5-yl)methyl)indoline-6-carboxamide] | < 25 nM | < 25 nM | < 25 nM
7 | Cc1n[nH]c2ncc(CN3CCc4ccc(C(=O)Nc5cc(CN6CCN(C)CC6)nc(C(F)(F)F)c5)cc43)cc12 [Example 81, 1-((3-methyl-1H-pyrazolo[3,4-b]pyridin-5-yl)methyl)-N-(2-((4-methylpiperazin-1-yl)methyl)-6-(trifluoromethyl)pyridin-4-yl)indoline-6-carboxamide] | < 25 nM | < 25 nM | < 25 nM
8 | Cc1cn(-c2cc(C(=O)Nc3ccc4c(c3)N(C(=O)c3cnc5ccccn35)CC4)cc(C(F)(F)F)c2)cn1 [Example 19, N-(1-(imidazo[1,2-a]pyridine-3-carbonyl)indolin-6-yl)-3-(4-methyl-1H-imidazol-1-yl)-5-(trifluoromethyl)benzamide] | < 25 nM | < 25 nM | 25 to 50 nM
9 | O=C(Nc1cccc(OC(F)(F)F)c1)c1ccc2c(c1)N(Cc1ccc3[nH]cnc3c1)CC2 [Example 61, 1-((1H-benzo[d]imidazol-5-yl)methyl)-N-(3-(trifluoromethoxy)phenyl)indoline-6-carboxamide] | 25 to 50 nM | 25 to 50 nM | 50 to 80 nM
10 | O=C(Nc1cccc(OC(F)(F)F)c1)c1ccc2c(c1)N(Cc1cnc3ccccn13)CC2 [Example 55, 1-(imidazo[1,2-a]pyridin-3-ylmethyl)-N-(3-(trifluoromethoxy)phenyl)indoline-6-carboxamide] | < 25 nM | 25 to 50 nM | < 25 nM
11 | Cn1nc(NC(=O)c2ccc3c(c2)N(Cc2cnc4cnccn24)CC3)cc1C(C)(C)C [Example 87, N-(5-(tert-butyl)-1-methyl-1H-pyrazol-3-yl)-1-(imidazo[1,2-a]pyrazin-3-ylmethyl)indoline-6-carboxamide] | < 25 nM | < 25 nM | 25 to 50 nM
12 | O=C(Nc1cccc(C(F)(F)F)c1)c1ccc2c(c1)N(Cc1ccc3[nH]cnc3c1)CC2 [Example 60, 1-((1H-benzo[d]imidazol-5-yl)methyl)-N-(3-(trifluoromethyl)phenyl)indoline-6-carboxamide] | < 25 nM | 50 to 80 nM | 50 to 80 nM
13 | Cc1cn(-c2cc(NC(=O)c3ccc4c(c3)N(C(=O)c3cnc5ccccn35)CC4)cc(C(F)(F)F)c2)cn1 [Example 12, 1-(imidazo[1,2-a]pyridine-3-carbonyl)-N-(3-(4-methyl-1H-imidazol-1-yl)-5-(trifluoromethyl)phenyl)indoline-6-carboxamide] | < 25 nM | < 25 nM | 50 to 80 nM
14 | Cc1n[nH]c2ncc(CN3CCc4ccc(C(=O)Nc5cc(CN6CC[C@@H](N(C)C)C6)nc(C(F)(F)F)c5)cc43)cc12 [Example 84, (R)-N-(2-((3-(dimethylamino)pyrrolidin-1-yl)methyl)-6-(trifluoromethyl)pyridin-4-yl)-1-((3-methyl-1H-pyrazolo[3,4-b]pyridin-5-yl)methyl)indoline-6-carboxamide] | < 25 nM | < 25 nM | < 25 nM
15 | CC(C)(C)c1cc(NC(=O)c2ccc3c(c2)N(Cc2cnc4[nH]ncc4c2)CC3)n(-c2ccccc2)n1 [Example 40, 1-((1H-pyrazolo[3,4-b]pyridin-5-yl)methyl)-N-(3-(tert-butyl)-1-phenyl-1H-pyrazol-5-yl)indoline-6-carboxamide] | 25 to 50 nM | < 25 nM | 25 to 50 nM
16 | CC(C)(c1cc(NC(=O)c2ccc3c(c2)N(Cc2cnc4ccccn24)CC3)no1)C(F)(F)F [Example 58, 1-(imidazo[1,2-a]pyridin-3-ylmethyl)-N-(5-(1,1,1-trifluoro-2-methylpropan-2-yl)isoxazol-3-yl)indoline-6-carboxamide] | 25 to 50 nM | < 25 nM | < 25 nM
17 | Cc1n[nH]c2ncc(CN3CCc4ccc(C(=O)Nc5cc(CN6CC[C@@H](N(C)C)C6)cc(C(F)(F)F)c5)cc43)cc12 [Example 72, (R)-N-(3-((3-(dimethylamino)pyrrolidin-1-yl)methyl)-5-(trifluoromethyl)phenyl)-1-((3-methyl-1H-pyrazolo[3,4-b]pyridin-5-yl)methyl)indoline-6-carboxamide] | < 25 nM | < 25 nM | < 25 nM
18 | O=C(Nc1cccc(C(F)(F)F)c1)c1ccc2c(c1)N(Cc1cnc3cnccn13)CC2 [Example 42, 1-(imidazo[1,2-a]pyrazin-3-ylmethyl)-N-(3-(trifluoromethyl)phenyl)indoline-6-carboxamide] | < 25 nM | < 25 nM | < 25 nM
19 | CC1CN(Cc2cnc3[nH]ncc3c2)c2cc(C(=O)Nc3cccc(C(F)(F)F)c3)ccc21 (racemic) [Example 30, 1-((1H-pyrazolo[3,4-b]pyridin-5-yl)methyl)-3-methyl-N-(3-(trifluoromethyl)phenyl)indoline-6-carboxamide] | < 25 nM | < 25 nM | < 25 nM
20 | Cc1cn(-c2cc(NC(=O)c3ccc4c(c3)N(Cc3cnc5cnccn35)CC4C)cc(C(F)(F)F)c2)cn1 (racemic) [Example 26, 1-(imidazo[1,2-a]pyrazin-3-ylmethyl)-3-methyl-N-(3-(4-methyl-1H-imidazol-1-yl)-5-(trifluoromethyl)phenyl)indoline-6-carboxamide] | < 25 nM | < 25 nM | 25 to 50 nM
